We go through eight compounds from article PMC7763603, “Structural Basis for Design of New Purine-Based Inhibitors Targeting the Hydrophobic Binding Pocket of Hsp90” (International Journal of Molecular Sciences, 2020).

The subject of one experiment is HCT116 cells. Nature of the experiment: MTT antiproliferative assay, HCT116. It is filed as cell-based, human. The protocol: The growth inhibitory effects of the test compounds, at 10 µM dose, were determined after 72 h incubation using the 3-(4,5-dimethylthiazol-2-yl)-2,5-diphenyl tetrazolium bromide (MTT) assay.
(§1) Cytotoxic activity of certain Hsp90 inhibitors against human cancer cell lines (MCF-7, SK-BR-3, and HCT116) was investigated using the MTT assay following the reported procedure. Cells were seeded into 96-well plates at a density of 3000 cells per well (MCF-7, HCT116, SK-BR-3 cells per each well). The compounds were added into cells and incubated for 72 h. Then, absorbance at 450 nm was measured using a Microplate Absorbance Reader (Bio-Rad, Hercules, CA, USA).
A general note: Formazan colour is commonly taken as a measure of viable cells.

The subject of a further experiment is MCF-7 cells. Nature of the experiment: MTT antiproliferative assay, MCF-7. It is filed as cell-based, human. The protocol:
The growth inhibitory effects of the test compounds, at 10 µM dose, were determined after 72 h incubation using the 3-(4,5-dimethylthiazol-2-yl)-2,5-diphenyl tetrazolium bromide (MTT) assay. […] Such modest cellular outcomes of those purine derivatives may be attributed to their lower lipophilic characters, which in turn restrict their cellular permeability into cancer cells. […] The 2-phenyloxazole-substituted purine 8 exerted reasonable antiproliferative activity, with GI values of 33.27% and 37.46% against MCF-7 and SK-BR-3 cells, respectively.
as §1

Experiment [1] addresses T1, human recombinant N-terminal Hsp90α (Homo sapiens, UniProt P07900).
T1 construct: human recombinant N-terminal Hsp90α protein; purchased Reaction Biology Corporation (RBC, Malvern, PA, USA; assay service)
Nature of the experiment: Fluorescence polarization competition assay with FITC-GM probe (Reaction Biology Corporation). It is filed as binding. The settings on record: single dose 10 μM, duplicate, FITC-GM probe; for inhibition at 10 µM: read-out: Hsp90α % Inhibition @10 μM.

The test system of a further experiment is SK-BR-3 cells. Nature of the experiment: MTT antiproliferative assay, SK-BR-3. It is filed as cell-based, human. The following applies: for GI50: mean ± SEM of two experiments.
Source text: […] […] Such modest cellular outcomes of those purine derivatives may be attributed to their lower lipophilic characters, which in turn restrict their cellular permeability into cancer cells. […] The 2-phenyloxazole-substituted purine 8 exerted reasonable antiproliferative activity, with GI values of 33.27% and 37.46% against MCF-7 and SK-BR-3 cells, respectively.
as §1

Usually GI50 stands for the concentration that inhibits growth by half. With “6-Chloro-9-((2-phenyloxazol-5-yl)methyl)-7H-purin-2-amine [Compound 8]”, the “HCT116 % Inh. at 10 μM” value in the experiment with HCT116 cells (10 μM, 72 h) came out at 19.19%. Moreover, the 50% growth inhibitory concentration (GI50) in the experiment with HCT116 cells (72 h, mean ± SEM of two experiments) came out at 23.4 ± 2.94 µM; in the experiment with SK-BR-3 cells (72 h), 22.5 ± 0.7 µM. Also, the “MCF-7 % Inh. at 10 μM” value in the experiment with MCF-7 cells (10 μM, 72 h) was 33.27%. For the same compound, in experiment [1], the “Hsp90α % Inhibition @10 μM” value is given as 48.7%. Also, the “SK-BR-3 % Inh. at 10 μM” value in the experiment with SK-BR-3 cells (10 μM, 72 h) is on record as 37.46%.
`COc1c(C)cnc(Cn2cnc3c(Cl)nc(N)nc32)c1C` [BIIB021, reference compound]: the inhibition at 10 µM in the experiment on HCT116 cells (Homo sapiens, HCT-116, 72 h, 10 μM, read-out: HCT116 % Inh. at 10 μM) was 86.2%; with MCF-7 cells (Homo sapiens, MCF7, 72 h, 10 μM, read-out: MCF-7 % Inh. at 10 μM), 84.8%; in the experiment with SK-BR-3 cells (Homo sapiens, SK-BR-3, 72 h, 10 μM, read-out: SK-BR-3 % Inh. at 10 μM), 71.9%. Besides, the GI50 was found to be 0.392 ± 0.03 µM with MCF-7 cells (Homo sapiens, MCF7, 72 h, mean ± SEM of two experiments) and 0.347 ± 0.023 µM in the experiment with SK-BR-3 cells (Homo sapiens, SK-BR-3, 72 h).
For `CCOC(=O)c1cc(Cn2cnc3c(Cl)nc(N)nc32)no1` [Compound 7, Ethyl 3-((2-amino-6-chloro-9H-purin-9-yl)methyl)isoxazole-5-carboxylate], the inhibition at 10 µM in experiment [1] was found to be 14.8%.
As for `Nc1nc(Cl)c2c(ncn2Cc2cnc(-c3ccccc3)o2)n1` [Compound 9, 6-Chloro-7-((2-phenyloxazol-5-yl)methyl)-7H-purin-2-amine], the “Hsp90α % Inhibition @10 μM” value in experiment [1] was “fluorescence background that interfered with the assay”.
With `Cc1ccc(C#CCn2cnc3c(Cl)nc(N)nc32)cc1` [Compound 10, 6-Chloro-9-(3-(p-tolyl)prop-2-yn-1-yl)-9H-purin-2-amine], in experiment [1], the inhibition at 10 µM came out at 22.2%.
For the compound `Cc1ccc(C#CCn2cnc3nc(N)nc(Cl)c32)cc1` [Compound 11, 6-Chloro-7-(3-(p-tolyl)prop-2-yn-1-yl)-7H-purin-2-amine], the “Hsp90α % Inhibition @10 μM” value in experiment [1] is “fluorescence background that interfered with the assay”.
Consider `Cc1ccc(-c2[nH]nnc2Cn2cnc3c(Cl)nc(N)nc32)cc1` [Compound 12, 6-Chloro-9-((5-(p-tolyl)-1H-1,2,3-triazol-4-yl)methyl)-9H-purin-2-amine], for which the “Hsp90α % Inhibition @10 μM” value in experiment [1] is listed as “fluorescence background that interfered with the assay”.
Regarding `Cc1ccc(-c2[nH]nnc2Cn2cnc3nc(N)nc(Cl)c32)cc1` [Compound 13, 6-Chloro-7-((5-(p-tolyl)-1H-1,2,3-triazol-4-yl)methyl)-7H-purin-2-amine], the “Hsp90α % Inhibition @10 μM” value in experiment [1] is recorded as “fluorescence background that interfered with the assay”.
